The numbers were not newly measured in US20050059682A1, “Compositions and methods for treatment of cancer” (priority 2003, published 2005), which cites them from elsewhere.

The test system of series [1] is prostate cancer. The note with it: single-agent chemotherapy of prostate cancer.
Series [2] concerns HDAC. The note with it: in vitro or in vivo for SAHA, SBHA, CBHA.
Series [3] concerns mammalian HDAC.

As for `CN(Cc1cnc2nc(N)nc(N)c2n1)c1ccc(C(=O)N[C@@H](CCC(=O)O)C(=O)O)cc1` [methotrexate], in series [1], the “efficacy as single agent” value was “minimal efficacy”. Take `O=P1(N(CCCl)CCCl)NCCCO1` (stereo not shown) [cyclophosphamide]: in series [1], the “efficacy as single agent” value is “minimal efficacy”. Take `C/C=C1\NC(=O)[C@H]2CSSCC/C=C/[C@H](CC(=O)N[C@H](C(C)C)C(=O)N2)OC(=O)[C@H](C(C)C)NC1=O` [FR901228]: the “concentration at which HDAC is inhibited” value in series [2] is “micromolar concentrations”. `C[C@]12CC[C@@H]3c4ccc(OC(=O)N(CCCl)CCCl)cc4CC[C@H]3[C@@H]1CC[C@@H]2O` [estramustine]: in series [1], the “efficacy as single agent” value is given as “minimal efficacy”. As to `Nc1ncn([C@H]2C[C@H](O)[C@@H](CO)O2)c(=O)n1` [decitabine, 5-aza-2′-deoxycytidine], the “half life in vivo” value was “short half life”. Under “in vivo”, the tissue distribution result is given as “excellent tissue distribution”. Take `N.N.[Cl][Pt][Cl]` [cisplatin]: the “efficacy as single agent” value in series [1] is “minimal efficacy”.

Consider `COc1cccc2c1C(=O)c1c(O)c3c(c(O)c1C2=O)C[C@@](O)(C(=O)CO)C[C@@H]3O[C@H]1C[C@H](N)[C@H](O)[C@H](C)O1` [doxorubicin], for which the “efficacy as single agent” value in series [1] is on record as “minimal efficacy”. For the compound depudecin, the “concentration at which HDAC is inhibited” value in series [2] is given as “micromolar concentrations”.

As to `O=C1c2c(O)ccc(O)c2C(=O)c2c(NCCNCCO)ccc(NCCNCCO)c21` [mitoxantrone], the “efficacy as single agent” value in series [1] was “minimal efficacy”.

For `O=c1[nH]cc(F)c(=O)[nH]1` [5-fluorouracil], the “efficacy as single agent” value in series [1] is reported as “minimal efficacy”. `O=C(/C=C/c1cccc(C(=O)NO)c1)NO` [CBHA, m-carboxy-cinnamic acid bishydroxamic acid]: the “concentration at which HDAC is inhibited” value in series [2] is listed as “micromolar concentration or lower”. Take `CC(/C=C/C(=O)NO)=C\[C@@H](C)C(=O)c1ccc(N(C)C)cc1` [TSA, trichostatin A]: the “inhibition of mammalian HDAC” value in series [3] was “potent inhibitor”.
